We go through 17 molecules from PubChem BioAssay (NCI).

Holding throughout (test): inhibition of tumour cell growth, NCI panel, 48 h
In assay [1] the test system is OVCAR-3 ovarian.
In assay [2] the test system is OVCAR-5 ovarian.
The test system of assay [3] is HOP-92 NSCLC.
Assay [4] has as its system MDA-N.
The subject of assay [5] is T-47D breast.
In assay [6] the test system is SK-MEL-2 melanoma.
For assay [7], the system named is 786-0 renal.
Assay [8] concerns SW-620 colon.
Assay [9] relates to SR leukemia.
Assay [10] has as its system DU-145 prostate.
For assay [11], the system named is OVCAR-8 ovarian.

The structures appear in SMILES notation.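 Dose response: 5 concentrations. Exposure: 48 h. Format: 96-well plates. Endpoint: linear interpolation; highest concentration if not reached. At the TGI there is no net growth.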

Regarding `C/C(Cl)=N\OC(=O)Nc1ccccc1C(F)(F)F`, the TGI was 29.2 µM in [1]; > 100 µM in assay [2]; 19 µM in assay [3]; 31.7 µM in assay [4]; > 100 µM in assay [5]; > 100 µM in assay [6]. The TGI in assay [7] was 38.6 µM; in assay [8], 36.1 µM; in assay [9], 44.9 µM; in assay [10], > 100 µM; in assay [11], > 100 µM.

Regarding `C=C(C)CCC1CCCCC(CN(C)C)C1=O` (configuration not stated), the TGI in assay [1], in assay [2], in assay [3], in assay [4], in [5] and in assay [6] was > 100 µM throughout. Besides, the TGI in assay [7], in [8], in assay [9], in assay [10] and in assay [11] was > 100 µM throughout.

For `CCN1/C(=C/c2ccc3ccccc3[n+]2CC)C=Cc2ccccc21`, the TGI in assay [1] amounted to 13.1 µM; in assay [2], 24.4 µM; in assay [3], 6.93 µM; in assay [4], 2.04 µM; in assay [5], 6.31 µM; in [6], 3.9 µM. Also, the TGI is 13.9 µM in [7]; 14.5 µM in assay [8]; > 100 µM in assay [9]; 15.7 µM in assay [10]; 12.4 µM in assay [11].

Consider `CO/N=C1\CCC2(O)C3Cc4ccc(O)c5c4C2(CCN3CC2CC2)[C@H]1O5` (some centres not stated), for which the TGI in [1], in assay [2], in assay [3], in [4], in [5] and in assay [6] was > 100 µM each time. The TGI in assay [7], in assay [8], in [9], in assay [10] and in assay [11] was > 100 µM throughout.

For `COc1ccc(-c2cc(-c3ccc(Nc4ccnc5cc(C(F)(F)F)ccc45)cc3)[nH]c(=O)c2C#N)c2ccccc12`, the TGI in [1] is > 100 µM; in assay [2], > 100 µM; in assay [3], > 100 µM; in [4] it was > 52.9 µM; in assay [5], > 60.5 µM; in [6], > 100 µM. In addition, the TGI is > 100 µM in [7]; > 100 µM in [8]; > 48.9 µM in [9]; > 83.7 µM in [10]; > 100 µM in assay [11].

For `COC1=CC(=O)C(O)=C(C[C@@]2(C)[C@@H]3CCC[C@H](COC(=O)CCCCCNC(=O)OC(C)(C)C)[C@@]3(C)CC[C@@H]2C)C1=O`, the TGI in assay [1], in assay [2], in assay [3], in assay [4], in [5] and in assay [6] was > 10 µM throughout. Moreover, the TGI in assay [7], in [8], in assay [9], in assay [10] and in assay [11] was > 10 µM each time.

In the case of `COc1ccc(C(=O)N2CCN(c3ccc4c(c3)OCC(=O)N4)CC2)cc1`, the TGI in assay [1], in assay [2], in [3], in assay [4], in assay [5] and in [6] was > 100 µM in each case. In addition, the TGI in assay [7], in assay [8], in [9], in assay [10] and in assay [11] was > 100 µM each time.

For the molecule `O=C1Oc2ccccc2C(=O)/C1=C/N1C(=O)/C(=C/c2ccc([N+](=O)[O-])cc2)SC1=S`, the TGI in assay [1] is 5.85 µM; in assay [2], > 100 µM; in [3], 5.71 µM; in assay [4], 46.7 µM; in [5], 51.7 µM; in assay [6] it was 82.4 µM. Besides, the TGI in assay [7] was > 100 µM; in [8], > 100 µM; in assay [9], > 100 µM; in assay [10], > 100 µM; in assay [11] it was 96.7 µM.

`C=CCN1C(=O)/C(=C/c2ccc(C)cc2)N=C1SC/C=C/C`: the TGI in assay [1] was > 100 µM; in assay [2] it was > 100 µM; in assay [3] it was 90.9 µM; in assay [4] it was > 100 µM; in assay [5] it was 83.3 µM; in assay [6], 57.7 µM. Further, the TGI in [7] was > 100 µM; in assay [8], > 100 µM; in [9], 42.4 µM; in assay [10], > 100 µM; in assay [11], > 100 µM.

For the molecule `CCC(=O)OCc1ccc2oc(=O)c(C(=O)Oc3cncc(Cl)c3)cc2c1`, the TGI in assay [1], in assay [2], in assay [3], in assay [4], in assay [5] and in assay [6] was > 100 µM throughout. Also, the TGI in [7], in assay [8], in [9], in assay [10] and in [11] was > 100 µM each time.

Take `O=C(CCCCCCCCC(=O)NN1C(=O)/C(=C\c2ccc(O)c(O)c2)SC1c1c(O)ccc2ccccc12)NN1C(=O)C(=Cc2ccc(O)c(O)c2)SC1c1c(O)ccc2ccccc12` (configuration not stated): the TGI in assay [1] is > 32.9 µM; in assay [2], > 100 µM; in assay [3] it was > 62.7 µM; in assay [4] it was > 100 µM; in [5], 62.1 µM; in assay [6] it was > 38.6 µM. In addition, the TGI was > 70 µM in assay [7]; > 100 µM in [8]; > 30.8 µM in assay [9]; > 59.8 µM in assay [10]; > 100 µM in assay [11].

For the molecule `Cc1cc(C)c2c(n1)S(=O)(=O)N(CCCN1CCN(c3cccc(C(F)(F)F)c3)CC1)/C(=C(\O)c1ccccc1)C2=O`, the TGI in [1] was 18.1 µM; in assay [2], 39 µM; in [3], 36.8 µM; in assay [4], > 100 µM; in assay [5] it was > 100 µM; in [6], > 100 µM. In addition, the TGI is 16.5 µM in assay [7]; 29.3 µM in assay [8]; 18.7 µM in assay [9]; > 100 µM in assay [10]; > 100 µM in [11].

Consider `CCOC(=O)CCC(C(=O)OCC)n1nc2ccc(Nc3c(C)[n+]([O-])c4cc(Cl)ccc4[n+]3[O-])cc2n1` (configuration not stated), for which the TGI in assay [1], in assay [2], in assay [3], in assay [4], in assay [5] and in assay [6] was > 100 µM each time. Further, the TGI in [7], in assay [8], in assay [9], in [10] and in assay [11] was > 100 µM in each case.

As to `CC1(C)OCC2OC3([C@H](O)CCO)OC(C)(C)OC3C2O1` (some centres not stated), the TGI in [1], in [2], in [3], in assay [4], in assay [5] and in assay [6] was > 100 µM in each case. Besides, the TGI in assay [7], in assay [8], in assay [9], in [10] and in [11] was > 100 µM throughout.

`COC(=O)[C@H]1[C@H](C(=O)OC)[C@@H](C)c2c(ccc3c2[nH]c2ccccc23)[C@@H]1C`: the TGI in assay [1], in assay [2], in assay [3], in [4], in assay [5] and in [6] was > 100 µM throughout. Moreover, the TGI in [7] was 61.5 µM; in assay [8] it was > 100 µM; in [9], > 100 µM; in [10], > 100 µM; in assay [11], > 100 µM.

As for `OC(c1cccs1)c1cc2ccccc2s1` (configuration not stated), the TGI in [1], in assay [2], in [3], in assay [4], in [5] and in assay [6] was > 10 µM each time. The TGI in [7], in [8], in assay [9], in assay [10] and in assay [11] was > 10 µM throughout.

For the molecule `O=C(O)c1c(-c2c3ccc(=O)cc-3oc3cc(O)ccc23)cc2ccccc2c1-c1ccccc1`, the TGI in assay [1], in [2], in assay [3], in assay [4], in assay [5] and in assay [6] was > 100 µM each time. The TGI in assay [7], in assay [8], in [9], in [10] and in [11] was > 100 µM throughout.
